As a reminder, the AUC(0-t) is the area under the concentration-time curve up to a stated or last time point. The Cmax is the maximum level reached in the sampled fluid or tissue. In general, Tmax refers to the time from dosing to the highest level.

The source of these data is patent publication US9604935B2, “Deuterated phenyl amino pyrimidine compound and pharmaceutical composition containing the same” (Suzhou Zelgen Biopharmaceuticals Co., Ltd., priority 2013, dated 2017).

Where two headings read alike, the source gives them in different places.

A short description of the data set: Pharmacokinetic evaluation in rats. It counts as in vivo. The note with it: male, Sprague-Dawley, rat, plasma, po, 3 mg/kg, 3 mg/kg by gavage. The method, then: 12 male Sprague-Dawley rats, 7-8 weeks old, of approximately 200 g body weight, were divided into three groups, four in each group.
Rats were feed with standard feed, and were given water, and were started to fast 16 hours before the test. The drug was dissolved in PEG400 and dimethylsulfoxide. Orbital blood collection was conducted, and the blood collection time is 0.25 hour, 0.5 hour, 1 hour, 2 hour, 4 hour, 6 hour, 8 hour, 12 hour, 24 hour, 36 hour and 48 hour after administration.
After inhalation of ether, the rats were shortly anesthesiaed; 300 μL of blood were collected from orbit into a test tube. There were 30 μL of 1% heparin saline solutions in the test tube. Before use, test tubes were dried overnight at 60° C. After the blood sample was collected in the subsequent time point, rats were anesthetized with ether and sacrificed.
After blood sampling, the tube was gently inverted at least 5 times immediately to ensure adequate mixing, and was placed on ice. Blood samples were 5000 rpm centrifuged at 4° C. for 5 minutes to separate the plasma and red blood cells. 100 μL of plasma was pipetted into a clean plastic centrifuge tube, and the name of compounds and the time point were indicated. Plasma was stored in −80° C. before use for the analysis. The concentration of the compound of the invention in plasma was determined with LC-MS/MS. The pharmacokinetic parameters were calculated based on the blood drug concentration of each animal at different time points.

The mark [1] stands for this setting: group G3, Mean of 4 rats, read-out: AUCINF_obs.
[2] abbreviates: group G3, rat 9, read-out: AUCINF_obs.
Setting [3] is: group G3, rat 10, read-out: AUCINF_obs.
[4] abbreviates: group G3, rat 11, read-out: AUCINF_obs.
The mark [5] stands for this setting: group G3, rat 12, read-out: AUCINF_obs.
Setting [6] is: group G1, Mean of 4 rats, read-out: AUCINF_obs.
Setting [7] is: group G1, rat 1, read-out: AUCINF_obs.
The mark [8] stands for this setting: group G1, rat 2, read-out: AUCINF_obs.
[9] abbreviates: group G1, rat 3, read-out: AUCINF_obs.
Setting [10] is: group G1, rat 4, read-out: AUCINF_obs.

As for `[2H]C1([2H])OC([2H])([2H])C([2H])([2H])N(c2ccc(Nc3nccc(-c4ccc(C(=O)NCC#N)cc4)n3)cc2)C1([2H])[2H]` [example 1, N-(cyanomethyl)-4-(2-(4-(d8-morpholino)phenylamino)pyrimidine-4-yl)benzamide], the AUC(0-t) reads like this: (group G3 (Table 3), mean±SD) 3960 ± 1480 ng·h/mL; (group G3, Mean of 4 rats) 3960 ng·h/mL; (group G3, rat 9) 6170 ng·h/mL; (group G3, rat 10) 3250 ng·h/mL; (group G3, rat 11) 3160 ng·h/mL; (group G3, rat 12) 3240 ng·h/mL. Moreover, the Cmax came to 653 ± 275 ng/mL (group G3 (Table 3), mean±SD); 653 ng/mL (group G3, Mean of 4 rats); 1060 ng/mL (group G3, rat 9); 596 ng/mL (group G3, rat 10); 476 ng/mL (group G3, rat 11); 483 ng/mL (group G3, rat 12). For the same molecule, the time of peak concentration (Tmax) by setting is: (group G3, Mean of 4 rats) 3.5 h; (group G3, rat 9) 4 h; (group G3, rat 10) 4 h; (group G3, rat 11) 2 h; (group G3, rat 12) 4 h. In addition, the AUC(0-inf) is 4060 ng·h/mL under setting [1]; 6300 ng·h/mL under setting [2]; 3370 ng·h/mL under setting [3]; 3250 ng·h/mL under setting [4]; 3320 ng·h/mL under setting [5].

Regarding `[2H]C([2H])(C#N)NC(=O)c1ccc(-c2ccnc(Nc3ccc(N4C([2H])([2H])C([2H])([2H])OC([2H])([2H])C4([2H])[2H])cc3)n2)cc1` [example 3, N-(cyano(d2-methyl))-4-(2-(4-(d8-morpholino)phenylamino)pyrimidin-4-yl)benzamide], the AUC(0-t) runs as follows: (group G3 (Table 3), mean±SD) 2720 ± 922 ng·h/mL; (group G3, Mean of 4 rats) 2720 ng·h/mL; (group G3, rat 9) 4100 ng·h/mL; (group G3, rat 10) 2300 ng·h/mL; (group G3, rat 11) 2190 ng·h/mL; (group G3, rat 12) 2290 ng·h/mL. Also, the Cmax runs as follows: (group G3 (Table 3), mean±SD) 447 ± 170 ng/mL; (group G3, Mean of 4 rats) 447 ng/mL; (group G3, rat 9) 694 ng/mL; (group G3, rat 10) 419 ng/mL; (group G3, rat 11) 329 ng/mL; (group G3, rat 12) 344 ng/mL. In addition, the Tmax (group G3, Mean of 4 rats) was 3.5 h; the Tmax (group G3, rat 9) worked out at 4 h; the Tmax (group G3, rat 10) worked out at 4 h; the time of peak concentration (Tmax) (group G3, rat 11) came to 2 h; the time of peak concentration (Tmax) (group G3, rat 12) turned out to be 4 h. Further, the AUC(0-inf) amounted to 2790 ng·h/mL under setting [1]; 4180 ng·h/mL under setting [2]; 2350 ng·h/mL under setting [3]; 2260 ng·h/mL under setting [4]; 2350 ng·h/mL under setting [5].

In the case of `[2H]C1([2H])COCC([2H])([2H])N1c1ccc(Nc2nccc(-c3ccc(C(=O)NCC#N)cc3)n2)cc1` [example 5, N-(cyanomethyl)-4-(2-(4-(2′,2′,6′,6′-d4-morpholino)phenylamino)pyrimidin-4-yl)benzamide], the AUC(0-t) was 5390 ± 1230 ng·h/mL (group G2 (Table 2), mean±SD); 5390 ng·h/mL (group G2, Mean of 4 rats); 6820 ng·h/mL (group G2, rat 5); 5460 ng·h/mL (group G2, rat 6); 5470 ng·h/mL (group G2, rat 7); 3810 ng·h/mL (group G2, rat 8). This molecule also gave a Cmax (group G2 (Table 2), mean±SD) of 972 ± 307 ng/mL; a Cmax (group G2, Mean of 4 rats) of 972 ng/mL; a Cmax (group G2, rat 5) of 1410 ng/mL; a Cmax (group G2, rat 6) of 922 ng/mL; a Cmax (group G2, rat 7) of 875 ng/mL; a peak concentration (Cmax) (group G2, rat 8) of 686 ng/mL. Besides, the Tmax (group G2, Mean of 4 rats) is 3.5 h; the Tmax (group G2, rat 5) was 2 h; the Tmax (group G2, rat 6) was 4 h; the Tmax (group G2, rat 7) is 4 h; the Tmax (group G2, rat 8) is 4 h. The AUC(0-inf) (group G2, Mean of 4 rats, read-out: AUCINF_obs) came out at 5440 ng·h/mL; the AUC(0-inf) (group G2, rat 5, read-out: AUCINF_obs) stood at 6850 ng·h/mL; the AUC(0-inf) (group G2, rat 6, read-out: AUCINF_obs) was found to be 5490 ng·h/mL; the AUC(0-inf) (group G2, rat 7, read-out: AUCINF_obs) came out at 5520 ng·h/mL; the AUC(0-inf) (group G2, rat 8, read-out: AUCINF_obs) was found to be 3900 ng·h/mL.

`[2H]C([2H])(C#N)NC(=O)c1ccc(-c2ccnc(Nc3ccc(N4CC([2H])([2H])OC([2H])([2H])C4)cc3)n2)cc1` [example 6]: the AUC(0-t) reads like this: (group G1 (Table 1), mean±SD) 1900 ± 1100 ng·h/mL; (group G1, Mean of 4 rats) 1900 ng·h/mL; (group G1, rat 1) 2730 ng·h/mL; (group G1, rat 2) 514 ng·h/mL; (group G1, rat 3) 2840 ng·h/mL; (group G1, rat 4) 1520 ng·h/mL. In addition, the Cmax runs as follows: (group G1 (Table 1), mean±SD) 282 ± 158 ng/mL; (group G1, Mean of 4 rats) 282 ng/mL; (group G1, rat 1) 423 ng/mL; (group G1, rat 2) 94.6 ng/mL; (group G1, rat 3) 403 ng/mL; (group G1, rat 4) 207 ng/mL. In addition, the Tmax (group G1, Mean of 4 rats) came to 2.56 h; the Tmax (group G1, rat 1) turned out to be 0.25 h; the time to peak (Tmax) (group G1, rat 2) stood at 4 h; the Tmax (group G1, rat 3) was found to be 4 h; the Tmax (group G1, rat 4) was found to be 2 h. Besides, the AUC(0-inf) by setting is: under setting [6], 1940 ng·h/mL; under setting [7], 2740 ng·h/mL; under setting [8], 561 ng·h/mL; under setting [9], 2920 ng·h/mL; under setting [10], 1530 ng·h/mL.

As to `[2H]C([2H])(C#N)NC(=O)c1ccc(-c2ccnc(Nc3ccc(N4CCOCC4)cc3)n2)cc1` [example 8, N-(cyano(d2-methyl))-4-(2-(4-morpholinophenylamino)pyrimidin-4-yl)benzamide], the AUC(0-t) reads like this: (group G1 (Table 1), mean±SD) 2090 ± 1220 ng·h/mL; (group G1, Mean of 4 rats) 2090 ng·h/mL; (group G1, rat 1) 3090 ng·h/mL; (group G1, rat 2) 574 ng·h/mL; (group G1, rat 3) 3050 ng·h/mL; (group G1, rat 4) 1630 ng·h/mL. The maximum concentration (Cmax) is 309 ± 175 ng/mL (group G1 (Table 1), mean±SD); 309 ng/mL (group G1, Mean of 4 rats); 469 ng/mL (group G1, rat 1); 101 ng/mL (group G1, rat 2); 438 ng/mL (group G1, rat 3); 227 ng/mL (group G1, rat 4). The Tmax is 2.56 h (group G1, Mean of 4 rats); 0.25 h (group G1, rat 1); 4 h (group G1, rat 2); 4 h (group G1, rat 3); 2 h (group G1, rat 4). Moreover, the AUC(0-inf) is 2120 ng·h/mL under setting [6]; 3100 ng·h/mL under setting [7]; 616 ng·h/mL under setting [8]; 3130 ng·h/mL under setting [9]; 1640 ng·h/mL under setting [10].
